Reference: patent US20180303798A1 (Ares Trading S.A., priority 2012, published 2018)

Columns and labels:
[1] = tested on: HEC-1-A cell line; assay: Apoptosis assay (Propidium Iodide staining and FACS, sub-G1 events); type: cell-based, human; details: 24 hours
Description: (§1) HEC-1A cells were obtained by ATCC and culture following instructions of the provider.
(§2) HEC-1-A is an epithelial stabilized cell line isolated by H. Kuramoto from adenocarcinoma patient (21), which provide a valuable model to study endometrial epithelial cell in vitro (22).
The apoptosis (% cell death) of the endometrial cells is a physiological phenomenon generally observed at 10-20% rate during cell culture.
Apoptosis levels were assayed by Propidium Iodide staining and FACS analysis. Percentage of sub-G1 events is shown for one of two experiments performed.

[2] = tested on: HEC-1-A cell line; assay: Antioxidant activity assay (ROS by FACS); type: cell-based, human
Description: They were used in different concentrations (i.e. 40 nM, 80 nM, 170 nM and 340 nM, corresponding respectively to 9.4×10^−9 g/ml, 18×10^−9 g/ml, 40×10^−9 g/ml and 80×10^−9 g/ml).
as §1, §2
Reactive Oxidative Substances (ROS) were measured by FACS as previously described by Italiano et al. (23) in two independent replicates.

[3] = tested on: endometrial tissue; assay: In vitro culture of endometrium with melatonin, visualization of pinopodes by electron microscopy (SEM); type: cell-based, human; details: co-culture from 3 to 5 days of endometrial tissue with permanent addition of melatonin
Description: The melatonin and the culture medium used are the same as those used for the in vivo study.
It has been used a field emission at high resolution electron microscope, FE HITACHI S 4000 model, operating at […].
Soon after retrieval from the patient, small pieces of endometrial tissue of about 1 mm in size have been placed in a fixing solution composed of paraformaldehyde 1% and glutaraldehyde 0.5% in buffer cacodylate 0.1 M pH 7.2 for 3 hours.
After this fixing the pieces are washed in PBS 20 min×3 times (1 hour total) and then the post fixing is carried out in a solution of osmium tetroxide 2% and potassium ferrocyanide 2.5%.
The preparation is kept in the dark for 3 hours to be then accurately washed rotating in PBS, with 4 replacements of 20 min each.
It follows dehydration of the samples of tissue with acetone in ascending succession with 3 replacements in 1 hour for each gradation 50%-70%-80%-90%-95% and 2 replacements with pure acetone. […]
The samples are fixed through a special electrically conductive double sided adhesive and for their arrangement two very thin needles are used and the preparation is ready to be observed with scanning electron microscope (SEM). […]

[4] = tested on: patients subjected to assisted fertilization; assay: Clinical study 1: multi-centre study, endometrial irrigation with melatonin in culture medium at oocyte retrieval; type: in vivo, human
Text: (§3) Said culture medium is normally used to improve cleavage, differentiation and expansion in vitro of blastocyst. The medium contains D-glucose, all the 20 essential L-amino acids, L-taurine, Gentamicin, human serum albumin, calcium lactate, calcium pantothenate; sodium chloride, sodium bicarbonate and sodium pyruvate; potassium chloride, potassium phosphate; magnesium chloride, magnesium sulfate; purified water. Further characteristics of the culture medium: • pH: 7.5-7.8 (use of bicarbonate buffer) • Osmolarity: 280-290 mOsm/kg • Endotoxins: <0.4 EU/ml • MEA: ≥80% • 2) physiological solution (Clinical Trial 2)
In the logistic regression, OR corresponds to the antilogarithm on a natural basis of the regression coefficient β associated with each covariate in the regression model.
The value thus calculated expresses therefore the advantage obtained through each procedure, irrespective of the other conditions.
The two-tailed confidence intervals at 95% (IF95%) of the OR have been calculated through the formula of […]
For the latter, the CI (confidence interval or trust interval) has been calculated through statistical analysis (IMPRUN. TXT) of linear regression with more variables of 95%.

[5] = tested on: patients subjected to assisted reproduction; assay: Clinical study 2: single centre study, endometrial washing with melatonin in sterile physiological solution; type: in vivo, human
Text: as §3
Restricted criteria of inclusion have been used for selecting the patient population involved in the studies: • 3) age ≥20 and <44 years • 4) body mass index (BMI) ≥20 and ≤28 kg/m^2 • 5) Basal FSH≤19 UI/l • 6) Male and female factors
The second clinical study with a single prospective centre involved 64 patients in the group of control and 92 patients in the group of study.
In the case of the physiological solution, the catheter can be pre-filled with physiological solution supplemented with melatonin.
The catheter has been introduced in the internal uterine orifice with the same steps through which the operator carries out the conventional embryo-transfer (ET).
The single centre study involved 64 patients in the group of control and 92 patients in the group of study.
The primary endpoint of the study is the rate of clinical pregnancies (fetal heart) due to embryonic transfer (ET); the secondary endpoint is the rate of ongoing pregnancies and aborts.

[6] = tested on: Ishikawa cells; details: effect produced through MT2 receptors; reference (7); cited from earlier work
[7] = 170 nM (40 ng/ml) compound, H2O2 200 mcg/ml
[8] = number of patients out of 92 ET

Row | SMILES | effect on apoptosis (% cell death, sub-G1) ([1]; up to concentration of 170 nM) | protection of cell line from oxidation (ROS, FACS) [2, 7] | anti-oxidative effect (ROS, FACS) ([2]; dose increased up to 340 nM, H2O2 200 mcg/ml, data not shown) | effect on apoptosis (% cell death, sub-G1) ([1]; at 170 and 340 nM) | pinopodes (SEM) with respect to the culture of control [3] | effect on apoptosis (% cell death, sub-G1) ([1]; all the concentrations tested (80, 170, 340 nM)) | number of pregnancies with respect to the other two groups ([4]; irrigation or washing with melatonin vs physiological solution and no irrigation) | result of endometrial irrigation at lower concentration ([4]; preceding studies with one third and the half of the final concentration 10×10^−9 g/ml, not shown data) | rate of clinical pregnancies and ongoing pregnancies vs the group of control ([5]; endometrial washing with solutions containing melatonin, infertile female population) | Aborts ([5]; group of study) | BHCG Positive (on total of ET) ([5]; group of study, 92 ET) | rate of ongoing pregnancies (Ongoing Pregnancy/ET) ([5]; group of study, 92 ET) | rate of clinical pregnancies (Clinical Pregnancy/ET) ([5]; group of study, 92 ET, melatonin 10×10^−9 g/ml in physiological solution) | BHCG Positive (on total of ET), No [5, 8] | Clinical Pregnancy/ET, No [5, 8] | Ongoing Pregnancy/ET, No [5, 8] | Aborts, No ([5]; number of patients, group of study) | proliferation of atypical endometrial cells (Ishikawa) [6] | anti-oxidative effect (ROS, FACS) ([2]; 170 nM (40 ng/ml) compound, H2O2 20 mcg/ml)
1 | COc1cc2c(CCNC(C)=O)c[nH]c2cc1O [6-hydroxy-melatonin, 6-hydroxymelatonin] | no effect on apoptosis | does not | anti-oxidative effect of this analogue is reached | – | – | – | – | – | – | – | – | – | – | – | – | – | – | – | –
2 | COc1ccc2cccc(CCNC(C)=O)c2c1 [agomelatine] | – | continued to protect cell line from oxidation | – | protective effect | – | – | – | – | – | – | – | – | – | – | – | – | – | – | –
3 | COc1ccc2[nH]cc(CCNC(C)=O)c2c1 [melatonin, N-acetyl-5-methoxytryptamine] | – | continued to protect cell line from oxidation | – | – | unquestionable increase of pinopodes | protective effect on apoptosis | double the number of pregnancies | without giving the same results | double | 11.8% | 44.6% | 32.6% | 37% | 41 | 34 | 30 | 4 | inhibits proliferation | same anti-oxidative effect
